Experimental data: patent US20200377551A1, “PEPTIDE CONSTRUCTS AND METHODS FOR ENHANCEMENT OF INTERFERON PRODUCTION” (Wake Forest University Health Sciences, priority 2019, published 2020)
Where two headings read alike, the source gives them in different places.

What was measured:
RIG-I/MAVS = molecular target: T1, RIG-I/MAVS (Homo sapiens, UniProt Q7Z434); assay: Immunoprecipitation of activated RIG-I and MAVS in HEK293 cells; format: cell-based; conditions: basal and Sendai virus-infected conditions
T1 construct: host or cells: HEK293 (per the earlier reading)

MAVS [1] = molecular target: T2, MAVS (Homo sapiens, UniProt Q7Z434); assay: MAVS mitochondria localization in HEK293 cells (immunoblot of mitochondria fraction, immunofluorescence)
Target sequence in this assay (Q7Z434 whole entry): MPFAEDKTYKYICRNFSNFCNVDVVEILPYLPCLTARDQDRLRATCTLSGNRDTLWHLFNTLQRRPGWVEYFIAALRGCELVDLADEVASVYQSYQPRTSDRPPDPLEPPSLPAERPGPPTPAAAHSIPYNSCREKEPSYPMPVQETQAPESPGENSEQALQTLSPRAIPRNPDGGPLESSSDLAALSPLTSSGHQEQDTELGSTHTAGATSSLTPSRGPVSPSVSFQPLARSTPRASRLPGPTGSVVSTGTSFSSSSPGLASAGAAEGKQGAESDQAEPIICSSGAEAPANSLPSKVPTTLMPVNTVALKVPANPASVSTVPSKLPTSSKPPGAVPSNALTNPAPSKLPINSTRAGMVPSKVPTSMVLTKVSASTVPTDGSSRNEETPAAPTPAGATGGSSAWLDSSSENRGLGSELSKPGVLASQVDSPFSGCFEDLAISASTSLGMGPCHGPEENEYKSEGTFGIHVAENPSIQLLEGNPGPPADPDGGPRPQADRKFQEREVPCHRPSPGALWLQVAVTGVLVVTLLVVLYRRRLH

MAVS [2] = molecular target: T2, MAVS; assay: Lactate-MAVS binding (biotin-lactate pulldown, immunoprecipitation, in vitro binding)
Target sequence in this assay (Q7Z434 2-540 limits assumed): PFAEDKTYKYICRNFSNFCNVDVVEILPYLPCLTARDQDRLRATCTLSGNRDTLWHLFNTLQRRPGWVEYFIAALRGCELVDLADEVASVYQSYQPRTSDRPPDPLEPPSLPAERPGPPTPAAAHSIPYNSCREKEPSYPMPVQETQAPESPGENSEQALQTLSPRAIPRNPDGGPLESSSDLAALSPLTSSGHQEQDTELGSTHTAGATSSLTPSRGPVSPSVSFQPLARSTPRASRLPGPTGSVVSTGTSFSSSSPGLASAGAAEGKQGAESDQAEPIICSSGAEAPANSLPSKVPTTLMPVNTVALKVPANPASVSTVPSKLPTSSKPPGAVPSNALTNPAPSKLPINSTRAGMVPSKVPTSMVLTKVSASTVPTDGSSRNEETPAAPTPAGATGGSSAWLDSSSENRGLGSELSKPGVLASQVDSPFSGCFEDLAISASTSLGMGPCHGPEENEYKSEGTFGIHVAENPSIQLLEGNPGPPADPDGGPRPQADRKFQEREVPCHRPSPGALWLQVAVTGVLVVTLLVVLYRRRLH

RLR signaling [3] = format: cell-based, mice
iBMM cells = format: cell-based
VSV-GFP = format: cell-based, Vesicular stomatitis virus
RLR signaling [4] = format: cell-based
MAVS signaling = format: cell-based
RLR signaling [5] = format: cell-based; remark: listed apart in the source
RLR signaling [6] = assay: Q-PCR analysis of IFN-β expression in Hep3B cells transfected with Poly(I:C); format: cell-based; conditions: Hep3B control cells; effect markedly impaired upon MCT1 knockdown
Sendai virus = format: cell-based
HK2 = assay: Immunoblot of HK2 level in the mitochondria fraction of THP1 cells; conditions: Poly(I:C) or HTDNA transfection or LPS stimulation
HEK293 cells [7] = assay: Metabolomics analysis of HEK293 cells after Poly(I:C) transfection; format: cell-based
Text: To investigate whether energy metabolism participates in regulating type-I IFN production, an unbiased, a systemic metabolomics approach was employed to examine the global metabolic changes during RLR-induced type-I IFN production. Changes of metabolites in glycolysis or oxidative phosphorylation were observed upon transfection of HEK293 cells with Poly(I:C) and harvesting for metabolomics analysis. […] As the direct pyruvate downstream metabolite, Acetyl-CoA production would be expected to decrease due to the reduction in pyruvate level, leading to the slower consumption of OAA for citrate production and thus maintaining the OAA level.

HeLa cells = assay: Immunofluorescence cellular localization of peptides in HeLa cells; format: cell-based; conditions: HeLa cells pretreated with peptides; MAVS or Tat antibody staining; data not shown
VSV = format: in vivo; conditions: mice; sodium oxamate (750 mg/kg)
HEK293 cells [8] = assay: Lactate level measurement in HEK293 cells; format: cell-based; conditions: sodium oxamate (20 mM) overnight
HSV = test system: HSV; set-up: species or system mice; conditions: mouse, in vivo
MAVS-TBK1-IRF3 = assay: IRF3 and TBK1 phosphorylation and MAVS aggregation in cells upon RLR activation; format: cell-based; conditions: data not shown
Protocol: In vivo and in vitro MAVS aggregation assays. In vivo MAVS aggregation was performed according to published protocol (Hou et al., 2011). In brief, mitochondria were isolated by using the Mitochondria isolation kit (Thermo 89874), and mitochondria pellet was suspended in 1×sample buffer (0.5×TBE, 10% glycerol, 2% SDS, and 0.0025% bromophenol blue) and subjected to Semi-denaturing detergent agarose gel electrophoresis (SDD-AGE). Samples were loaded onto a vertical 1.5% agarose gel (Bio-Rad). After electrophoresis in the running buffer (1×TBE and 0.1% SDS) for 40 min with a constant voltage of 80-100 V at 4° C., the proteins were transferred to Immobilon membrane (Millipore) for immunoblotting.

[9] = 2 hours post PolyI:C transfection
[10] = 4 hours post PolyI:C transfection
[11] = 8 hours post PolyI:C transfection

T1 sequence (Q7Z434 whole entry): as the sequence (Q7Z434 whole entry) above

CC(O)C(=O)O (centres unmarked) [lactate]
interaction between activated RIG-I and MAVS (RIG-I/MAVS): markedly reduced
effect of oxamate on MAVS mitochondria localization (MAVS [1]; lactate add-back with oxamate): compromised this effect
interaction with RLR signaling proteins in biotin pulldown (MAVS [2]; biotin-labeled lactate mixed with whole cell extracts (HEK293)): specifically interacted with MAVS
interaction with MAVS in cells under physiological conditions (MAVS [2]; complexes immunoprecipitated by anti-MAVS antibody from HEK293 cells): interacted with lactate
binding of MAVS to Biotin-lactate (MAVS [2]; pre-incubation with excessive lactate, data not shown): significantly attenuated
IFN-β production (RLR signaling [3]): consistently reduced

O=C[C@H](O)[C@@H](O)[C@@H](O)[C@H](O)CO [galactose]
anaerobic glycolysis-mediated lactate production (iBMM cells): impaired
GFP expression (VSV-GFP): no GFP expression
viral replication, as determined by GFP fluorescence (VSV-GFP): marked reduction in viral replication
IFN-β and IL-6 production upon poly(I:C) or Sev challenge (RLR signaling [4]): markedly enhanced

N#C/C(=C\c1cn(-c2ccccc2)c2ccccc12)C(=O)O [UK5099]
MAVS signaling and IFN-β induction (MAVS signaling): decreased
lactate level (MAVS signaling): elevated

O=CC[C@@H](O)[C@H](O)[C@H](O)CO [2-DG, 2-deoxy-glucose]
IFN-β and IL-6 production driven by RLR stimuli (RLR signaling [5]): markedly enhanced
IFN-β expression (RLR signaling [6]): promoted IFN-β expression
virus replication (Sendai virus): reduction in virus replication

polyI:C
mitochondria HK2 level (HK2): decreased
Relative Quantity, 2/3-Phosphoglyceric Acid (185.0/97.0) (HEK293 cells [7]; [9]): 0.4994
Relative Quantity, 3HBA (103.0/59.0) (HEK293 cells [7]; [9]): 0.6808
Relative Quantity, Aconitate (173.0/85.0) (HEK293 cells [7]; [9]): 0.7655
Relative Quantity, Alpha-Ketoglutaric Acid (145.0/101.0) (HEK293 cells [7]; [9]): 0.94
Relative Quantity, D-GA3P (168.9/97.0) (HEK293 cells [7]; [9]): 0.5042
Relative Quantity, DHAP (168.9/78.8) (HEK293 cells [7]; [9]): 0.6334
Relative Quantity, F16BP/F26BP/G16BP (339.0/97.0) (HEK293 cells [7]; [9]): 0.5666
Relative Quantity, Fumaric Acid (115.0/71.0) (HEK293 cells [7]; [9]): 0.7279
Relative Quantity, G1P/G6P/F6P/F1P (259.0/97.0) (HEK293 cells [7]; [9]): 0.712
Relative Quantity, Glucose (179.0/89.0) (HEK293 cells [7]; [9]): 1.118
Relative Quantity, Lactate (89.0/43.0) (HEK293 cells [7]; [9]): 0.536
Relative Quantity, Malate (133.0/115.0) (HEK293 cells [7]; [9]): 0.6979
Relative Quantity, Maleic Acid (115.0/71.0 (2)) (HEK293 cells [7]; [9]): 0.6194
Relative Quantity, Malonic Acid (103.0/41.0) (HEK293 cells [7]; [9]): 0.5644
Relative Quantity, Oxalacetate (131.0/113.0) (HEK293 cells [7]; [9]): 0.977
Relative Quantity, PEP (166.9/79.0) (HEK293 cells [7]; [9]): 0.3968
Relative Quantity, Pyruvate (87.0/43.0) (HEK293 cells [7]; [9]): 0.683
Relative Quantity, Succinate (117.0/73.0) (HEK293 cells [7]; [9]): 0.7616
Relative Quantity, 2/3-Phosphoglyceric Acid (185.0/97.0) (HEK293 cells [7]; [10]): 0.7985
Relative Quantity, 3HBA (103.0/59.0) (HEK293 cells [7]; [10]): 0.7735
Relative Quantity, Aconitate (173.0/85.0) (HEK293 cells [7]; [10]): 0.6576
Relative Quantity, Alpha-Ketoglutaric Acid (145.0/101.0) (HEK293 cells [7]; [10]): 0.8959
Relative Quantity, D-GA3P (168.9/97.0) (HEK293 cells [7]; [10]): 0.6278
Relative Quantity, DHAP (168.9/78.8) (HEK293 cells [7]; [10]): 0.935
Relative Quantity, F16BP/F26BP/G16BP (339.0/97.0) (HEK293 cells [7]; [10]): 0.9103
Relative Quantity, Fumaric Acid (115.0/71.0) (HEK293 cells [7]; [10]): 0.7094
Relative Quantity, G1P/G6P/F6P/F1P (259.0/97.0) (HEK293 cells [7]; [10]): 0.8706
Relative Quantity, Glucose (179.0/89.0) (HEK293 cells [7]; [10]): 1.093
Relative Quantity, Lactate (89.0/43.0) (HEK293 cells [7]; [10]): 0.657
Relative Quantity, Malate (133.0/115.0) (HEK293 cells [7]; [10]): 0.7843
Relative Quantity, Maleic Acid (115.0/71.0 (2)) (HEK293 cells [7]; [10]): 0.7566
Relative Quantity, Malonic Acid (103.0/41.0) (HEK293 cells [7]; [10]): 0.6946
Relative Quantity, Oxalacetate (131.0/113.0) (HEK293 cells [7]; [10]): 1.006
Relative Quantity, PEP (166.9/79.0) (HEK293 cells [7]; [10]): 0.7706
Relative Quantity, Pyruvate (87.0/43.0) (HEK293 cells [7]; [10]): 0.7115
Relative Quantity, Succinate (117.0/73.0) (HEK293 cells [7]; [10]): 0.8793
Relative Quantity, 2/3-Phosphoglyceric Acid (185.0/97.0) (HEK293 cells [7]; [11]): 1.118
Relative Quantity, 3HBA (103.0/59.0) (HEK293 cells [7]; [11]): 1.035
Relative Quantity, Aconitate (173.0/85.0) (HEK293 cells [7]; [11]): 0.7724
Relative Quantity, Alpha-Ketoglutaric Acid (145.0/101.0) (HEK293 cells [7]; [11]): 0.965
Relative Quantity, D-GA3P (168.9/97.0) (HEK293 cells [7]; [11]): 0.998
Relative Quantity, DHAP (168.9/78.8) (HEK293 cells [7]; [11]): 1.101
Relative Quantity, F16BP/F26BP/G16BP (339.0/97.0) (HEK293 cells [7]; [11]): 1.127
Relative Quantity, Fumaric Acid (115.0/71.0) (HEK293 cells [7]; [11]): 1.057
Relative Quantity, G1P/G6P/F6P/F1P (259.0/97.0) (HEK293 cells [7]; [11]): 1.034
Relative Quantity, Glucose (179.0/89.0) (HEK293 cells [7]; [11]): 0.9641
Relative Quantity, Lactate (89.0/43.0) (HEK293 cells [7]; [11]): 1.05
Relative Quantity, Malate (133.0/115.0) (HEK293 cells [7]; [11]): 0.9353
Relative Quantity, Maleic Acid (115.0/71.0 (2)) (HEK293 cells [7]; [11]): 0.9352
Relative Quantity, Malonic Acid (103.0/41.0) (HEK293 cells [7]; [11]): 0.9823
Relative Quantity, Oxalacetate (131.0/113.0) (HEK293 cells [7]; [11]): 1.032
Relative Quantity, PEP (166.9/79.0) (HEK293 cells [7]; [11]): 1.062
Relative Quantity, Pyruvate (87.0/43.0) (HEK293 cells [7]; [11]): 1.023
Relative Quantity, Succinate (117.0/73.0) (HEK293 cells [7]; [11]): 0.8886

control peptide: corresponding control construct (SEQ ID NO:43) (YGRKKRRQRRRATGVLYLLVVLVWVAAQGVLTVL)
entry into cells (HeLa cells): found to enter into cells

NC(=O)C(=O)[O-].[Na+] [sodium oxamate]
interaction between activated RIG-I and MAVS (RIG-I/MAVS): enhanced
lactate production (VSV): reduced
IFN-β production (RLR signaling [5]): enhanced
MAVS mitochondria localization (MAVS [1]; oxamate alone): potentiated
lactate level (HEK293 cells [8]): reduced
IFN-β expression (RLR signaling [6]): promoted IFN-β expression
IFN production (HSV): no difference
IRF3 and TBK1 phosphorylation and MAVS aggregation upon RLR activation (MAVS-TBK1-IRF3): promoted
virus replication (Sendai virus): suppressing virus replication
